Measurements taken from US7314709B2, “Compositions and methods for detecting and quantifying COX-2 activity by lipoamino acid metabolism” (Vanderbilt University, priority 2002, dated 2008).
Residue numbers refer to the chain shown, from its start.

Experiments:
Assay type in all cases: biochemical, murine
[1] = target: T1, mCOX-2 R513H (Mus musculus, UniProt Q05769, R499H); assay: Initial O2 uptake rate with side pocket mutant R513H; conditions: 200 nM enzyme; AA 100 μM, NAGly 200 μM
T1 construct: made in house; host or cells: Sf-9 insect cells
T1 sequence (Q05769 18-604 R499H): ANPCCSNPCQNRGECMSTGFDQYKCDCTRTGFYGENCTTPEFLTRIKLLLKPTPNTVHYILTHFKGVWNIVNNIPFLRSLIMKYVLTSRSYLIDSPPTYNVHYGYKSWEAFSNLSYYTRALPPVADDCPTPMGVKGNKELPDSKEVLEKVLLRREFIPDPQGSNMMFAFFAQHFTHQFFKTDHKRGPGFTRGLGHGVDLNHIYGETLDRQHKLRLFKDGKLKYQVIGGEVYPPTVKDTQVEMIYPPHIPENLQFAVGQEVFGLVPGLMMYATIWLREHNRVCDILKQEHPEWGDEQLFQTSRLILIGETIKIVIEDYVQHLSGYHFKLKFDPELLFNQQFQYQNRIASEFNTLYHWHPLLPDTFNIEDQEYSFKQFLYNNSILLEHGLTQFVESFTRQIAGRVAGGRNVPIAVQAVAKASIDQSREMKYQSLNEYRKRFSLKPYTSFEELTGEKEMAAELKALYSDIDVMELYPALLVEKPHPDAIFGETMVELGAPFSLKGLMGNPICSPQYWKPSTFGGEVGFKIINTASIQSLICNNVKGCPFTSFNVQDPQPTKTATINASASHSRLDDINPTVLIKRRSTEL
Protocol: (§1) Enzymology: COX-1 was purified from ram seminal vesicles as previously described. Site-directed mutagenesis of COX-2 was performed as described previously. Recombinant COX-2 enzymes were expressed in Sf-9 insect cells and purified by ion-exchange chromatography and gel filtration as previously described. Apo-enzymes were reconstituted with hematin prior to activity assays.
(§2) COX activity was quantified as previously described. Initial reaction velocity data were obtained from the linear portion of the oxygen uptake curves. Oxygraph data were analyzed by nonlinear regression with Enzyme Kinetics 1.5 software (Trinity Software, Campton, N.H.).
(§3) Previous studies have identified residues in the side pocket of COX-2, especially Arg-513, as critical determinants of 2-AG oxygenation by COX-2 [13]. […] (FIG. 5).

[2] = target: T2, mCOX-2 Y385F (Mus musculus, UniProt Q05769, Y371F); assay: O2 uptake with mCOX-2 site-directed mutant Y385F
T2 construct: made in house; host or cells: Sf-9 insect cells
T2 sequence (Q05769 18-604 Y371F): T1 sequence (Q05769 18-604 R499H) with Y354F, H482R
Protocol: as §1, §2
AA binds in the COX active site with the […] near Gly-533 [20,27].

[3] = target: T3, mCOX-2 V4341/R513H/V5231 (VRV) (Mus musculus, UniProt Q05769, R499H/V420I/V509I); assay: Initial O2 uptake rate with side pocket triple mutant (VRV); conditions: 200 nM enzyme; AA 100 μM, NAGly 200 μM
T3 construct: made in house; host or cells: Sf-9 insect cells
T3 sequence (Q05769 18-604 V420I/R499H/V509I): T1 sequence (Q05769 18-604 R499H) with V403I, V492I
Protocol: as §1, §2, §3

[4] = target: T4, mCOX-2 Y355F (Mus musculus, UniProt Q05769, Y341F); assay: Initial O2 uptake rate with constriction site mutant Y355F; conditions: 200 nM enzyme; AA 100 μM
T4 construct: made in house; host or cells: Sf-9 insect cells
T4 sequence (Q05769 18-604 Y341F): T1 sequence (Q05769 18-604 R499H) with Y324F, H482R
Protocol: as §1, §2
At the bottom of the substrate (and inhibitor) binding site, there is a hydrogen bonding network comprised of residues Arg-120, Tyr-355, and Glu524, that form a constriction which is present in both COX isoforms. These residues contribute to the binding of the carboxylate in both AA and NSAIDs, and the glycerol moiety of 2-AG [12,23-27].

effect of mutation on oxygenation rate [1]: did not greatly affect | substrate oxidation by Y385F [2]: fails to oxidize | effect of mutation on oxygenation [3]: did not greatly affect | reduction in initial rate of oxygenation compared with wild-type [4]: < 3 fold
SMILES: CCCCC/C=C\C/C=C\C/C=C\C/C=C\CCCC(=O)O [AA, arachidonic acid]
